From patent publication US9278922B2 (ABBVIE INC., priority 2009, dated 2016)

Test system: HCV 1b-Con-1 replicon
Assay: HCV 1b-Con-1 replicon assay (luciferase reporter gene, HuH-7 cells)
Assay type: cell-based, Hepatitis C virus (HCV) genotype 1b-Con1
Details: Hepatitis C virus, Huh-7, luciferase reporter gene activity in the replicon, in the presence of 5% FBS

Structure (SMILES) | EC50 [nM]
COC(=O)N[C@@H](C(=O)N1CCC[C@H]1C(=O)Nc1ccc(CN(Cc2ccc(NC(=O)[C@@H]3CCCN3C(=O)[C@@H]3CCCO3)cc2)c2ccccc2)cc1)c1ccccc1 [Example 76, methyl {(1R)-2-oxo-1-phenyl-2-[(2S)-2-({4-[(phenyl{4-[({(2S)-1-[(2S)-tetrahydrofuran-2-ylcarbonyl]pyrrolidin-2-yl}carbonyl)amino]benzyl}amino)methyl]phenyl}carbamoyl)pyrrolidin-1-yl]ethyl}carbamate] | < 1
COC(=O)N[C@H](C(=O)N1CCC[C@H]1C(=O)Nc1ccc(CN(Cc2ccc(NC(=O)[C@@H]3CCCN3C(=O)[C@@H](NC(=O)OC)C3CCCCC3)cc2)c2ccc(F)cc2)cc1)C1CCCCC1 [Example 104, dimethyl ([(4-fluorophenyl)imino]bis{methanediylbenzene-4,1-diylcarbamoyl(25)pyrrolidine-2,1-diyl[(1S)-1-cyclohexyl-2-oxoethane-2,1-diyl]})biscarbamate] | < 1
COC(=O)N[C@H](C(=O)N1CCC[C@H]1C(=O)Nc1ccc(CN(Cc2ccc(NC(=O)[C@@H]3CCCN3C(=O)[C@H](N)c3ccccc3)cc2)c2ccccc2)cc1)C(C)(C)C [Example 77, N-(methoxycarbonyl)-3-methyl-L-valyl-N-[4-({[4-({1-[(2R)-2-amino-2-phenylacetyl]-L-proly}amino)benzyl](phenyl)amino}methyl)phenyl]-L-prolinamide] | < 1
O=C(Nc1ccc(CN(Cc2ccc(NC(=O)[C@@H]3COCN3C(=O)OCc3ccccc3)cc2)c2ccc(F)cc2)cc1)[C@@H]1COCN1C(=O)OCc1ccccc1 [Example 126, dibenzyl (4S,4′S)-4,4′-{[(4-fluorophenyl)imino]bis(methanediylbenzene-4,1-diylcarbamoyl)}bis(1,3-oxazolidine-3-carboxylate)] | 10 to 100
CC[C@H](NC(=O)OC)C(=O)N1CCC[C@H]1C(=O)Nc1ccc(CN(Cc2ccc(NC(=O)[C@@H]3CCCN3C(=O)[C@H](NC(=O)OC)c3ccccc3)cc2)c2ccccc2)cc1 [Example 71, methyl {(1R)-2-[(2S)-2-{[4-({[4-({[(2S)-1-{(2S)-2-[(methoxycarbonyl)amino]butanoyl}pyrrolidin-2-yl]carbonyl}amino)benzyl](phenyl)amino}methyl)phenyl]carbamoyl}pyrrolidin-1-yl]-2-oxo-1-phenylethyl}carbamate] | < 1
COC(=O)N[C@H](C(=O)N1CCC[C@H]1c1nc2cc(CN(Cc3ccc4[nH]c([C@@H]5CCCN5C(=O)[C@@H](NC(=O)OC)C(C)C)nc4c3)c3ccc(F)cc3)ccc2[nH]1)C(C)C [Example 96, methyl [(1S)-1-{[(2S)-2-(5-{[(4-fluorophenyl)({2-[(2S)-1-{(2S)-2-[(methoxycarbonyl)amino]-3-methylbutanoyl}pyrrolidin-2-yl]-1H-benzimidazol-5-yl}methyl)amino]methyl}-1H-benzimidazol-2-yl)pyrrolidin-1-yl]carbonyl}-2-methylpropyl]carbamate] | < 1
COC(=O)N[C@H](C(=O)N1CCC[C@H]1C(=O)Nc1ccc(CN(Cc2ccc(NC(=O)[C@@H]3CCCN3C(=O)[C@@H](NC(=O)OC)C(C)(C)O)cc2)c2ccccc2)cc1)C(C)(C)O [Example 28, dimethyl [(phenylimino)bis{methanediylbenzene-4,1-diylcarbamoyl(2S)pyrrolidine-2,1-diyl[(2S)-3-hydroxy-3-methyl-1-oxobutane-1,2-diyl]}]biscarbamate] | < 1
COC(=O)N[C@H](C(=O)N1CCC[C@H]1C(=O)Nc1ccc(CN(Cc2ccc(NC(=O)[C@@H]3CCCN3C(=O)[C@@H](NC(=O)OC)C(C)(C)C)cc2)C(C)C)cc1)C(C)(C)C [Example 30, dimethyl ([(1-methylethyl)imino]bis{methanediylbenzene-4,1-diylcarbamoyl(2S)pyrrolidine-2,1-diyl[(2S)-3,3-dimethyl-1-oxobutane-1,2-diyl]})biscarbamate] | 100 to 250
COC(=O)N[C@H](C(=O)N1CCC[C@H]1C(=O)Nc1ccc(CN(Cc2ccc(NC(=O)[C@@H]3CCCN3C(=O)[C@H](NC(=O)OC)c3ccccc3)cc2)c2ccccc2)cc1)[C@H]1CCOC1 [Example 72] | < 1
COC(=O)N[C@@H](Cc1ccccc1)C(=O)N1CCC[C@H]1C(=O)Nc1ccc(CN(Cc2ccc(NC(=O)[C@@H]3CCCN3C(=O)[C@H](Cc3ccccc3)NC(=O)OC)cc2)c2ccccc2)cc1 [Example 61, dimethyl [(phenylimino)bis{methanediylbenzene-4,1-diylcarbamoyl(2S)pyrrolidine-2,1-diyl[(2S)-1-oxo-3-phenylpropane-1,2-diyl]}]biscarbamate] | 1 to 10
CN(C)[C@@H](C(=O)N1CCC[C@H]1c1nc2cc(CN(Cc3ccc4[nH]c([C@@H]5CCCN5C(=O)[C@@H](c5ccccc5)N(C)C)nc4c3)c3ccccc3)ccc2[nH]1)c1ccccc1 [Example 18, (2R,2′R)-1,1′-((2S,2′S)-2,2′-(5,5′-(phenylazanediyl)bis(methylene)bis(1H-benzo[d]imidazole-5,2-diyl))bis(pyrrolidine-2,1-diyl))bis(2-(dimethylamino)-2-phenylethanone)] | < 1
COC(=O)N[C@H](C(=O)N1CCC[C@H]1C(=O)Nc1ccc(CN(Cc2ccc(NC(=O)[C@@H]3CCCN3C(=O)[C@@H](NC(=O)OC)C3CCCC3)cc2)c2ccc(F)cc2)cc1)C1CCCC1 [Example 133, dimethyl ([(4-fluorophenyl)imino]bis{methanediylbenzene-4,1-diylcarbamoyl(2S)pyrrolidine-2,1-diyl[(1S)-1-cyclopentyl-2-oxoethane-2,1-diyl]})biscarbamate] | < 1
COC(=O)N[C@H](C(=O)N1C[C@H](F)C[C@H]1C(=O)Nc1ccc(CN(Cc2ccc(NC(=O)[C@@H]3C[C@@H](F)CN3C(=O)[C@@H](NC(=O)OC)C(C)(C)C)cc2)c2ccc(F)cc2)cc1)C(C)(C)C [Example 103] | < 1
O=C(Nc1ccc(CN(Cc2ccc(NC(=O)[C@@H]3CCCN3C(=O)C(c3ccccc3)N3CCCC3=O)cc2)c2ccc(F)cc2)cc1)[C@@H]1CCCN1C(=O)C(c1ccccc1)N1CCCC1=O (single isomer, unassigned) [Example 129, (2S ,2′S)-N,N′-{[(4-fluorophenyl)imino]bis(methanediylbenzene-4,1-diyl)}bis{1-[(2-oxopyrrolidin-1-yl)(phenyl)acetyl]pyrrolidine-2-carboxamide}] | 1 to 10
COC(=O)N[C@H](C(=O)N1CCC[C@H]1C(=O)Nc1ccc(CN(Cc2ccc(NC(=O)[C@@H]3CCCN3C(=O)[C@H](NC(=O)[C@@H]3CCCO3)c3ccccc3)cc2)c2ccccc2)cc1)C(C)(C)C [Example 87, N-(methoxycarbonyl)-3-methyl-L-valyl-N-[4-({phenyl[4-({1-[(2R)-2-phenyl-2-{[(2S)-tetrahydrofuran-2-ylcarbonyl]amino}acetyl]-L-prolyl}amino)benzyl]amino}methyl)phenyl]-L-prolinamide] | < 1
CC(C)[C@@H](C(=O)N1CCC[C@H]1C(=O)Nc1ccc(CN(Cc2ccc(NC(=O)[C@@H]3CCCN3C(=O)[C@H](C(C)C)N3CCCNC3=O)cc2)c2ccccc2)cc1)N1CCCNC1=O [Example 36, (2S,2′S)-N,N′-[(phenylimino)bis(methanediylbenzene-4,1-diyl)]bis {1-[(2S)-3-methyl-2-(2-oxotetrahydropyrimidin-1(2H)-yl)butanoyl]pyrrolidine-2-carboxamide}] | 1 to 10
CN(C)[C@@H](C(=O)N1CCC[C@H]1C(=O)Nc1ccc(CN(Cc2ccc(NC(=O)[C@@H]3CCCN3C(=O)[C@@H](c3ccccc3)N(C)C)cc2)c2ccccc2)cc1)c1ccccc1 [Example 2] | < 1
COC(=O)N[C@H](C(=O)N1CCC[C@H]1C(=O)Nc1ccc(CN(Cc2ccc(NC(=O)[C@@H]3CCCN3C(=O)[C@@H](NC(=O)OC)C(C)(C)C)cc2)c2ccc(F)cc2)cc1)C(C)(C)C [Example 13, Dimethyl (2S,2′S)-1,1′-((2S,2′S)-2,2′-(4,4′-(4-fluorophenylazanediyl)bis(methylene)bis(4,1-phenylene)bis(azanediyl))bis(oxomethylene)bis(pyrrolidine-2,1-diyl))bis(3,3-dimethyl-1-oxobutane-2,1-diyl)dicarbamate] | < 1
COC(=O)N[C@H](C(=O)N1CCC[C@H]1C(=O)Nc1ccc(CN(Cc2ccc(NC(=O)[C@@H]3CCCN3C(=O)[C@H](NC(=O)OC)c3ccccc3)cc2)c2ccccc2)cc1)C(C)(C)C [Example 69] | < 1
COC(=O)N[C@H](C(=O)N1CCC[C@H]1C(=O)Nc1cccc(CN(Cc2cccc(NC(=O)[C@@H]3CCCN3C(=O)[C@@H](NC(=O)OC)C(C)C)c2)c2ccc(F)cc2)c1)C(C)C [Example 146, dimethyl ([(4-fluorophenyl)imino]bis{methanediylbenzene-3,1-diylcarbamoyl(2S)pyrrolidine-2,1-diyl[(2S)-3-methyl-1-oxobutane-1,2-diyl]})biscarbamate] | 1 to 10
CC(C)(C)[C@H](Nc1ncccn1)C(=O)N1CCC[C@H]1C(=O)Nc1ccc(CN(Cc2ccc(NC(=O)[C@@H]3CCCN3C(=O)[C@@H](Nc3ncccn3)C(C)(C)C)cc2)c2ccccc2)cc1 [Example 111, (2S,2′S)-N,N′-[(phenylimino)bis(methanediylbenzene-4,1-diyl)]bis{1-[(2S)-3,3-dimethyl-2-(pyrimidin-2-ylamino)butanoyl]pyrrolidine-2-carboxamide}] | 1 to 10
CC[C@H](NC(=O)OC)C(=O)N1CCC[C@H]1C(=O)Nc1ccc(CN(Cc2ccc(NC(=O)[C@@H]3CCCN3C(=O)[C@@H](NC(=O)OC)C(C)(C)C)cc2)c2ccccc2)cc1 [Example 62, N-(methoxycarbonyl)-3-methyl-L-valyl-N-(4-{[{4-[(1-{(2S)-2-[(methoxycarbonyl)amino]butanoyl}-L-prolyl)amino]benzyl}(phenyl)amino]methyl}phenyl)-L-prolinamide] | 1 to 10
O=C(Nc1ccc(CN(Cc2ccc(NC(=O)[C@@H]3CCCN3C(=O)[C@@H](c3ccccc3)N3CCOCC3)cc2)c2ccccc2)cc1)[C@@H]1CCCN1C(=O)[C@@H](c1ccccc1)N1CCOCC1 [Example 57, (2S,2′S)-N,N′-[(phenylimino)bis(methanediylbenzene-4,1-diyl)]bis{1-[(2R)-2-morpholin-4-yl-2-phenylacetyl]pyrrolidine-2-carboxamide}] | < 1
